Test results as given in patent publication US20260138949A1, “NOVEL COMPOUND AS PHOSPHOLIPASE D INHIBITOR AND USE THEREOF” (UIF (UNIVERSITY INDUSTRY FOUNDATION), YONSEI UNIVERSITY, priority 2022, published 2026).

System: phospholipase D1
Assay: PLD activity in HCT116 cells ([3H]phosphatidylbutanol, TLC)
Format: cell-based, human
Conditions: compound 10 μM, cells without the compound = 100%
Description: To evaluate the inhibitory effect of the compounds according to the present invention on phospholipase D1 activity, experiments were conducted as follows.
For the analysis of PLD activity in cells, human colon cancer cell line (HCT116) was cultured in a 6-well plate at 37° C. for 24 hours, washed twice with phosphate-buffered saline (PBS), and then replaced with medium containing [^3H]myristate and cultured for 24 hours. After the culture, the cells were washed three times with PBS, treated with 1-butanol, and the drug was added to a final concentration of 10 μM. The cells were trypsinized and suspended, and the amount of [^3H]phosphatidylbutanol produced in the cell suspension was measured and evaluated for PLD activity using thin layer chromatography (TLC), and the results are shown in Table 1 below.
The Remaining activity % at 10 μM in Table 1 is calculated by setting the amount of [^3H]phosphatidylbutanol produced in cells without the compound as 100% and calculating the amount of [^3H]phosphatidylbutanol produced in cells treated with the compound as a percentage. Therefore, the lower the value of Remaining activity %, the higher the PLD inhibitory activity.

SMILES | Remaining activity % at 10 μM
O=C(Nc1ccc(Cl)c([N+](=O)[O-])c1)c1c[nH]c2ccccc12 [Example 1-1, N-(4-chloro-3-nitrophenyl)-1H-indole-3-carboxamide] | 86.43%
COC(=O)c1ccc(CNC(=O)c2cc3ccccc3[nH]2)cc1 [Example 1-88, methyl 4-((1H-indole-2-carboxamido)methyl)benzoate] | 37.79%
O=C(Cc1c[nH]c2ccccc12)Nc1ccc(O)cc1 [Example 1-24, N-(4-hydroxyphenyl)-2-(1H-indol-3-yl)acetamide] | not active
O=C(Cc1c[nH]c2ccccc12)Nc1ccc(F)cn1 [Example 1-22, N-(5-fluoropyridin-2-yl)-2-(1H-indol-3-yl)acetamide] | 66.5%
Cc1cc(C)cc(NC(=O)c2cc3cc(F)ccc3[nH]2)c1 [Example 1-103, N-(3,5-dimethylphenyl)-5-fluoro-1H-indole-2-carboxamide] | 75.43%
O=C(Cc1c[nH]c2ccccc12)NNc1ccc(Cl)c(Cl)c1 [Example 1-54, N′-(3,4-dichlorophenyl)-2-(1H-indol-3-yl)acetohydrazide] | not active
O=C(Cc1c[nH]c2ccccc12)Nc1ccc(Cl)c([N+](=O)[O-])c1 [Example 1-19, N-(4-chloro-3-nitrophenyl)-2-(1H-indol-3-yl)acetamide] | not active
O=C(Nc1cc(C(F)(F)F)cc(C(F)(F)F)c1)c1cc2cc(Cl)ccc2[nH]1 [Example 1-99, N-(3,5-bis(trifluoromethyl)phenyl)-5-chloro-1H-indole-2-carboxamide] | not active
COc1ccc(CNC(=O)c2cc3cc(F)ccc3[nH]2)cc1OC [Example 1-94, N-(3,4-dimethoxybenzyl)-5-fluoro-1H-indole-2-carboxamide] | 53.46%
O=C(Nc1ccc(Cl)c([N+](=O)[O-])c1)c1cc2ccccc2[nH]1 [Example 1-85, N-(4-chloro-3-nitrophenyl)-1H-indole-2-carboxamide] | 53.78%
O=C(Cc1c[nH]c2ccccc12)NCc1ccccc1F [Example 1-35, N-(2-fluorobenzyl)-2-(1H-indol-3-yl)acetamide] | 83.61%
O=C(Nc1ccc(F)cc1)c1cc2ccccc2[nH]1 [Example 1-83, N-(4-fluorophenyl)-1H-indole-2-carboxamide] | not active
O=C(CCCC[C@@H]1SC[C@@H]2NC(=O)N[C@@H]21)NNC(=O)c1ccc2[nH]c(C(=O)Nc3cc(C(F)(F)F)cc(C(F)(F)F)c3)cc2c1 [Example 1-119, N-(3,5-bis(trifluoromethyl)phenyl)-5-(2-(5-((3aS,4S,6aR)-2-oxohexahydro-1H-thieno[3,4-d]imidazol-4-yl)pentanoyl)hydrazine-1-carbonyl)-1H-indole-2-carboxamide] | 27.26%
O=C(CCc1c[nH]c2ccccc12)Nc1ccc(F)cc1 [Example 1-63, N-(4-fluorophenyl)-3-(1H-indol-3-yl)propanamide] | not active
COc1cccc(NC(=O)Cc2c[nH]c3ccccc23)c1 [Example 1-10, 2-(1H-indol-3-yl)-N-(3-methoxyphenyl)acetamide] | 89.33%
O=C(Cc1c[nH]c2ccccc12)NCc1ccc(Cl)cc1 [Example 1-49, N-(4-chlorobenzyl)-2-(1H-indol-3-yl)acetamide] | 59.74%
O=C(Cc1c[nH]c2ccccc12)Nc1ccc(Br)cc1 [Example 1-17, N-(4-bromophenyl)-2-(1H-indol-3-yl)acetamide] | not active
O=C(Cc1c[nH]c2ccccc12)NCc1cccc(Cl)c1Cl [Example 1-47, N-(2,3-dichlorobenzyl)-2-(1H-indol-3-yl)acetamide] | 62.96%
